Test results: US20150216136A1, “PLANT REGENERATION FROM PROTOPLASTS DERIVED FROM ELAEIS sp SUSPENSION CULTURES” (MALAYSIAN PALM OIL BOARD, priority 2012, published 2015)

Experiments:
Format in all cases: cell-based, Elaeis guineensis
microcalli = assay: Control of callus browning in agarose bead culture; conditions: additive in Y35N5D2iP liquid media surrounding agarose beads; AA 200 mg/l
Method: The mixture of protoplasts and agarose was prepared by using the same procedure for preparation of agarose solidified cultures with the exception that the protoplast pellet was resuspended in […] liquid media supplemented with the optimum PGRs and 0.6% w/v agarose sea plaque. Agarose beads were prepared by dropping 200 μl of the mixture into a 60 mm×15 mm petri dish. After agarose solidification, 10 ml of 21% v/v osmoticum solution was added to Petri dish and incubated at 28° C. in the dark for 3-5 days. Three types of osmoticum solutions were used: sucrose, glucose and mannitol. Each was dissolved in water, adjusting the pH to 5.7 and then filter-sterilized. The osmoticum solution was replaced with different liquid media in shaking condition at 50 rpm by refreshing the media at 14-day intervals. When the formation of microcolonies was observed, […] liquid media was changed to Y3 liquid media and the agarose beads were cultured until the microcalli were detected. […] The cultures were continued until the microcalli growth to embryogenic calli.

oil palm protoplasts [1] = assay: Plant growth regulators (PGRs) optimization on agarose solidified cultures; conditions: within PGR combinations, Y3A or Y3D media
Method: The PGRs optimization was performed on agarose solidified cultures. All PGRs used were prepared at the concentration of 1 μM/μl and the pH was adjusted to 5.7. The filter-sterilized PGRs were added in 24 wells culture plate at different combinations and concentration as indicated in Table 3.
Protoplast division frequency was calculated by counting the number of protoplasts divided by the total number of protoplasts in one representative microscope field. Three microscopic fields were averaged to represent one experiment in which the experiment was performed in 3 replicates to give an average range of protoplast division frequency. A similar calculation procedure was used for microcolonies and microcalli formation frequencies.

oil palm protoplasts [2] = assay: DNA microinjection mediated transformation of alginate layer-embedded protoplasts; conditions: in injected protoplasts at 28° C.
Method: Protoplasts were isolated from a 7 day subculture of a 3 month old embryogenic suspension culture as described above. After twice repeating the washing step, the supernatant was mostly removed leaving 3 ml Washing solution. The centrifuge tube containing the protoplast suspension was incubated in a vertical position in the dark for 24 hours at 28° C. After incubation, the protoplast suspension was diluted by 10 ml of Rinse solution and resuspended by inverting the centrifuge tube for 3-5 times, and then centrifuged at 60×g for 5 minutes at 22° C. After repeating the rinsing step, the supernatant was removed completely and the protoplast pellet was embedded with 3 ml filter-sterilized ([…]) alginate solution consisted of 1% w/v alginic acid sodium salt (A2158, Sigma) dissolved in Y3A liquid media (5.5% w/v sucrose and 11.9% w/v glucose supplemented with 10 μM NAA, 2 μM 2.4-D, 2 μM IBA, 2 μM GA3, 2 μM 2iP and 200 mg/L ascorbic acid) adjusted to pH 5.6, in which the Y3 macroelements was prepared without calcium chloride (CaCl2.2H2O).
Alginate-embedded protoplasts were distributed as a thin layer onto supporting media comprising, 1.5 mL filter-sterilized Y3A (5.5% w/v sucrose and 11.9% w/v glucose supplemented with 0.1% w/v CaCl2.2H2O) solidified with 1% w/v agarose sea plaque, in 35 mm×10 mm petri dish (no. 627161, Greiner Bio-One, Germany). […]

Compound	Cell division at concentration higher than 7 μM (oil palm protoplasts [1])	further results
O=[N+]([O-])[O-].[Ag+] [AgNO3, Silver nitrate]	–	Microcalli browning / development of embryogenic callus (microcalli): did not solve the problem of browning
CC(C)=CCNc1ncnc2nc[nH]c12 [2iP, 2-γ-Dimethylallylaminopurine]	inhibited cell division	–
O=C1O[C@H]([C@@H](O)CO)C(O)=C1O [AA, Ascorbic acid]	–	Microcalli browning / development of embryogenic callus (microcalli): developed embryogenic callus
O=C(O)CCCc1c[nH]c2ccccc12 [IBA, Indole-3-butyric acid]	inhibited cell division	–
O=C(O)COc1ccc(Cl)cc1Cl [2,4-D, 2,4-Dichlorophenoxyacetic acid]	inhibited cell division	–
C=C1C[C@]23C[C@@]1(O)CC[C@H]2[C@@]12C=C[C@H](O)[C@@](C)(C(=O)O1)[C@H]2[C@@H]3C(=O)O [GA3, Gibberellic acid A3]	inhibited cell division	–
Lucifer Yellow CH dilithium salt	–	Time the fluorescence property is maintained (oil palm protoplasts [2]): 48 h
